Assay results as given in PMC3925373 (Bioorganic & medicinal chemistry, 2013).
Where a name gives a salt, the structure may show the parent alone. Read-outs that look alike come from different tables or passages of the source.

Tests used:
[1] = biological target: T1, Human matrix metalloprotease-1 (Homo sapiens, UniProt P03956); experiment: Human MMP-1 FRET assay; format: biochemical
T1 sequence (P03956 100-469): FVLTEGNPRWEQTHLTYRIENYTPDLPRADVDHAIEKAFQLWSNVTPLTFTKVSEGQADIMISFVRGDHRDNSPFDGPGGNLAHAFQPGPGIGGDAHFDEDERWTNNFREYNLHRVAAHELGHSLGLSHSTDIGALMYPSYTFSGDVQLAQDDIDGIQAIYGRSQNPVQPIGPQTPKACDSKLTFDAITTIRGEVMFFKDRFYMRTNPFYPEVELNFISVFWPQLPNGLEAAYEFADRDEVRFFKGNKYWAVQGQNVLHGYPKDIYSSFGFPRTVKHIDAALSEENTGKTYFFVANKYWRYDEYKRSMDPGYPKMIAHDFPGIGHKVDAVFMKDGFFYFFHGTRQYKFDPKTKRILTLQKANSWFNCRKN

[2] = biological target: Bacillus anthracis lethal factor (Bacillus anthracis, UniProt P15917); experiment: biochemical; format: biochemical
Chain of Bacillus anthracis lethal factor (P15917 34-809 limits assumed): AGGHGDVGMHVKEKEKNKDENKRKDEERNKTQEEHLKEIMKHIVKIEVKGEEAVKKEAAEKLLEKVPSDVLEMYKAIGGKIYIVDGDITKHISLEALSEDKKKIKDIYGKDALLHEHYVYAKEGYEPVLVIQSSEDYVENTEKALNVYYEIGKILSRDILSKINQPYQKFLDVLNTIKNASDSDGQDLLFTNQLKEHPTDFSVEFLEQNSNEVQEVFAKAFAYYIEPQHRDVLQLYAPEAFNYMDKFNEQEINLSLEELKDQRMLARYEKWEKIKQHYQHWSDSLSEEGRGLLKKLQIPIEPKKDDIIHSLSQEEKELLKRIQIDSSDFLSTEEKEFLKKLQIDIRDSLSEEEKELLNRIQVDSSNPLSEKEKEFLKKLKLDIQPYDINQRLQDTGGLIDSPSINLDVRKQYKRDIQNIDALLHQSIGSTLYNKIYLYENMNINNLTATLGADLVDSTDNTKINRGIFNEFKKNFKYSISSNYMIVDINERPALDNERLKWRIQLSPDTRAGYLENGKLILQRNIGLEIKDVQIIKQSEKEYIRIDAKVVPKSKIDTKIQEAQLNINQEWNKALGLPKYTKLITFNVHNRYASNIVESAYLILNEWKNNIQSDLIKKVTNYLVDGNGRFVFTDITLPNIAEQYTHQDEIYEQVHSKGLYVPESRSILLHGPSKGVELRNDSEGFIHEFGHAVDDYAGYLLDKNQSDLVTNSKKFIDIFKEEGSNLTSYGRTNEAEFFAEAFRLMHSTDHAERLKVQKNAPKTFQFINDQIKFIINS

BaLF = BaLF (Bacillus anthracis, UniProt P15917); format: biochemical
Chain of BaLF (P15917 34-809 limits assumed): as above

BoNT/A LC = BoNT/A LC (Clostridium botulinum, UniProt P0DPI0); experiment: biochemical; format: biochemical, Clostridium bolulinum
Chain of BoNT/A LC (P0DPI0 2-448 limits assumed): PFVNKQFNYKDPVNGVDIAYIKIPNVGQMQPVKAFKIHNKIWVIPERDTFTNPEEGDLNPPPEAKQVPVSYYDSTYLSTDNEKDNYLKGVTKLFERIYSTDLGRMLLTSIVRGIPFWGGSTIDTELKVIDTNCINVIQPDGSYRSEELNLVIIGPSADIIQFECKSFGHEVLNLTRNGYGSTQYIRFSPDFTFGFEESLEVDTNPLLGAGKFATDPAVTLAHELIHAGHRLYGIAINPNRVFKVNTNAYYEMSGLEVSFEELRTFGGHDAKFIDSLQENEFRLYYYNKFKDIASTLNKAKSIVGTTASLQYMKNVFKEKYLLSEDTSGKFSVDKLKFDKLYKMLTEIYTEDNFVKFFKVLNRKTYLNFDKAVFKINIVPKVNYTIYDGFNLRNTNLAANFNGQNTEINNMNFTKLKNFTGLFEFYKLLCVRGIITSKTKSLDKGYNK

Compound	LF inhibitory activity (in words) [2]	other results
Cc1cc(N)c2cc(NC(=O)Nc3ccc4nc(C)cc(N)c4c3)ccc2n1 [Compound 1]		IC50 [1]: > 100 µM
Cc1cc(N)c2cc(NC(=O)CCc3ccccc3C)ccc2n1 [Compound 18aa, N-(4-Amino-2-methylquinolin-6-yl)-3-(2-methylphenyl)propionamide trifluoroacetate]	inactive	
COc1ccc(Br)cc1CCC(=O)Nc1ccc2nc(C)cc(N)c2c1 [Compound 18ee, N-(4-Amino-2-methylquinolin-6-yl)-3-(5-bromo-2-methoxyphenyl)propionamide trifluoroacetate]	inactive	
COc1ccc(Cl)cc1CCC(=O)Nc1ccc2nc(C)cc(N)c2c1 [Compound 18ff, N-(4-Amino-2-methylquinolin-6-yl)-3-(5-chloro-2-methoxyphenyl)propionamide trifluoroacetate]	inactive	
CCOc1ccccc1CCC(=O)Nc1ccc2nc(C)cc(N)c2c1 [Compound 18ii, N-(4-Amino-2-methylquinolin-6-yl)-3-(2-ethoxyphenyl)propionamide trifluoroacetate]	activity was also totally lost	
Cc1cc(N)c2cc(NC(=O)c3ccc(-c4ccc5ncccc5c4)cc3)ccc2n1 [Compound 18m, N-(4-Amino-2-methylquinolin-6-yl)-4-(quinoline-6-yl)benzamide trifluoroacetate]		mechanism of inhibition on BaLF activity (BaLF): noncompetitive
COc1ccncc1CCC(=O)Nc1ccc2nc(C)cc(N)c2c1 [Compound 18oo, N-(4-Amino-2-methylquinolin-6-yl)-3-(4-methoxypyridin-3-yl)propionamide]	devoid of activity	
COc1ccsc1CCC(=O)Nc1ccc2nc(C)cc(N)c2c1 [Compound 18pp, N-(4-Amino-2-methylquinolin-6-yl)-3-(3-methoxythiophene-2-yl)propionamide trifluoroacetate]	devoid of activity	
COc1ccccc1CCC(=O)Nc1ccc2nc(C)cc(N)c2c1 [Compound 18t, N-(4-Amino-2-methylquinolin-6-yl)-3-(2-methoxyphenyl)propionamide trifluoroacetate]		mechanism of inhibition on BaLF activity (BaLF): noncompetitive
COc1ccc(CCC(=O)Nc2ccc3nc(C)cc(N)c3c2)cc1 [Compound 18u, N-(4-Amino-2-methylquinolin-6-yl)-3-(4-methoxyphenyl)propionamide p-toluenesulfonate]	LF inhibitory activity was lost	
COc1cccc(CCC(=O)Nc2ccc3nc(C)cc(N)c3c2)c1 [Compound 18v, N-(4-Amino-2-methylquinolin-6-yl)-3-(3-methoxyphenyl)propionamide trifluoroacetate]	LF inhibitory activity was lost	
COc1ccc(OC)c(CCC(=O)Nc2ccc3nc(C)cc(N)c3c2)c1 [Compound 18w, N-(4-Amino-2-methylquinolin-6-yl)-3-(2,5-dimethoxyphenyl)propionamide p-toluenesulfonate]	complete loss of activity	
COc1cccc(CCC(=O)Nc2ccc3nc(C)cc(N)c3c2)c1OC [Compound 18x, N-(4-Amino-2-methylquinolin-6-yl)-3-(2,3-dimethoxyphenyl)propionamide p-toluenesulfonate]	complete loss of activity	
Cc1cc(N)c2cc(NC(=O)CCc3ccccc3OC(=O)c3ccccc3)ccc2n1 [Compound 18y, N-(4-Amino-2-methylquinolin-6-yl)-3-(2-benzoyloxyphenyl)propionamide trifluoroacetate]	inactive	
Cc1cc(N)c2cc(NC(=O)CCc3ccccc3Cl)ccc2n1 [Compound 18z, N-(4-Amino-2-methylquinolin-6-yl)-3-(2-chlorophenyl)propionamide trifluoroacetate]	inactive	
Cc1cc(N)c2cc(NC(=O)Nc3ccc4c(c3)OCO4)ccc2n1 [Compound 20a, 1-(4-Amino-2-methylquinolin-6-yl)-3-(benzo[d][1,3]dioxol-5-yl)urea trifluoroacetate]		IC50 [2]: 87 µM; IC50 (BoNT/A LC): 51 µM
COc1cc(-c2cccnc2)ccc1CCC(=O)Nc1ccc2nc(C)cc(N)c2c1 [Compound 35, N-(4-Amino-2-methylquinolin-6-yl)-3-(2-methoxy-4-(pyridin-3-yl)phenyl)propanamide]		IC50 [2]: 55 µM
N-(4-Amino-2-methylquinolin-6-yl)isoquinoline-3-carboxamide trifluoroacetate [Compound 18h]		IC50 (BoNT/A LC; read-out: IC50 BoNT/A): > 100 µM
N-(4-Amino-2-methylquinolin-6-yl)quinoline-2-carboxamide trifluoroacetate [Compound 18g]		IC50 ([2]; read-out: IC50 LF): 52 µM
